Reference: PubChem BioAssay (NCI)
“And” between values parts separate entries of the source, which are not always exact repeats. Equal entries are not always repeated.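 1) Cells in 96-well plates. 2) Compound, 48 h, 5 concentrations. 3) Linear interpolation between surrounding doses. 4) Unreached endpoint = highest concentration. GI50: concentration for 50% inhibition of growth. Definition used: TGI = concentration required for complete inhibition of growth.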

Tests used:
Assay in all cases: inhibition of tumour cell growth, NCI panel, 48 h
CCRF-CEM leukemia = test system: CCRF-CEM leukemia
DU-145 prostate = test system: DU-145 prostate
IGROV1 ovarian = test system: IGROV1 ovarian
MDA-N = test system: MDA-N
SF-268 CNS = test system: SF-268 CNS
SW-620 colon = test system: SW-620 colon
UACC-257 melanoma = test system: UACC-257 melanoma
UO-31 renal = test system: UO-31 renal
MCF7 breast = test system: MCF7 breast
SF-539 CNS = test system: SF-539 CNS

## CN(C)CCN1C(=O)N(CCN(C)C)c2c3cc(O)ccc3nc3c([N+](=O)[O-])ccc1c23
CCRF-CEM leukemia
  TGI: 20 µM
DU-145 prostate
  TGI: 27 µM
IGROV1 ovarian
  TGI: 13.6 µM
MDA-N
  TGI: 26.7 µM
SF-268 CNS
  TGI: 26.7 µM
SW-620 colon
  TGI: 24.7 µM
UACC-257 melanoma
  TGI: 29.2 µM
UO-31 renal
  TGI: 33.9 µM

## O=C1CCC(CCc2nc3ccccc3[nH]2)(c2ccccc2)C(=O)N1 (stereo not given)
CCRF-CEM leukemia
  TGI: > 100 µM
DU-145 prostate
  TGI: > 100 µM
IGROV1 ovarian
  TGI: > 100 µM
MCF7 breast
  TGI: > 100 µM
MDA-N
  TGI: > 100 µM
SF-268 CNS
  TGI: > 100 µM
SF-539 CNS
  TGI: > 100 µM
SW-620 colon
  TGI: > 100 µM
UACC-257 melanoma
  TGI: > 100 µM
UO-31 renal
  TGI: 52.1 µM

## O=C(/C=C/CC(O)(c1ccccc1)c1ccccc1)Nc1ccccc1Cl
CCRF-CEM leukemia
  TGI: > 100 µM
SF-268 CNS
  TGI: > 100 µM
SW-620 colon
  TGI: > 100 µM
UACC-257 melanoma
  TGI: > 100 µM
UO-31 renal
  TGI: > 100 µM

## C=C1C[C@@H]2CC[C@@]34CC5O[C@H]6C(O[C@H]7CC[C@H](CC(=O)O[C@@H]8[C@@H](C)[C@@H]9O[C@@H]%10C[C@]%11(C[C@@H]%12O[C@]%13(C[C@H](C)[C@@H]%14O[C@@H]%15CC(C(COC(C)=O)OC(C)=O)O[C@@H]%15C[C@@H]%14O%13)C[C@H](C)[C@@H]%12O%11)O[C@@H]%10C[C@@H]9O[C@H]8CC8O[C@@H](CC[C@@H]1O2)C[C@@H](C)C8(O)CO)O[C@@H]7[C@@H]6O3)[C@H]5O4 (stereo not given in full)
CCRF-CEM leukemia
  TGI: > 1 µM
DU-145 prostate
  TGI: > 1 µM
IGROV1 ovarian
  TGI: > 1 µM
MCF7 breast
  TGI: > 1 µM
SF-268 CNS
  TGI: > 0.955 µM
SW-620 colon
  TGI: > 1 µM
UACC-257 melanoma
  TGI: > 0.53 µM
UO-31 renal
  TGI: > 1 µM

## CC1OC2OC3C(OCC(O)C3O)OC(=O)[C@]34CCC(C)(C)CC3C3=CCC5[C@@]6(C)C[C@H](O)[C@H](OC7OC(CO)C(O)C(O)C7OC7OC(COC(=O)CC(C)(O)CC(=O)OC1C(OC1OC(CO)C(O)C(O)C1O)C2O)C(O)C(O)C7O)[C@@](C)(CO)C6CC[C@@]5(C)[C@]3(C)CC4 (stereo not given in full)
CCRF-CEM leukemia
  TGI: 14 µM
DU-145 prostate
  TGI: 8.51 µM
IGROV1 ovarian
  TGI: 11.8 µM
MDA-N
  TGI: 2.65 µM
SF-268 CNS
  TGI: 10.5 µM
SF-539 CNS
  TGI: 15.5 µM
SW-620 colon
  TGI: 11.2 µM
UACC-257 melanoma
  TGI: 4.24 µM
UO-31 renal
  TGI: 5.31 µM

## Brc1ccc(/C(N=N/C(=N\Sc2ccccc2)c2ccc(Br)cc2)=N/Sc2ccccc2)cc1
CCRF-CEM leukemia
  TGI: > 100 µM
DU-145 prostate
  TGI: > 100 µM
IGROV1 ovarian
  TGI: > 100 µM
MCF7 breast
  TGI: > 100 µM
MDA-N
  TGI: > 100 µM
SF-268 CNS
  TGI: > 100 µM
SF-539 CNS
  TGI: > 100 µM
SW-620 colon
  TGI: > 100 µM
UACC-257 melanoma
  TGI: > 100 µM
UO-31 renal
  TGI: > 100 µM

## C[N+]1(CCCCN2c3ccccc3Sc3cc(N=[N+]=[N-])ccc32)CCN(C(=O)CCNC(=O)Cc2ccc(C(=O)c3ccccc3)cc2)CC1
CCRF-CEM leukemia
  TGI: 64.2 µM
DU-145 prostate
  TGI: 35.1 µM
IGROV1 ovarian
  TGI: > 77.6 µM
MCF7 breast
  TGI: 68 µM
MDA-N
  TGI: > 71.9 µM
SF-268 CNS
  TGI: 71.5 µM
SF-539 CNS
  TGI: > 76.9 µM
SW-620 colon
  TGI: > 74.6 µM
UACC-257 melanoma
  TGI: > 75.8 µM
UO-31 renal
  TGI: 39 µM

## CC(C)NC(=O)OCc1c(COC(=O)NC(C)C)n(C)c2c1ccc1cc(Cl)c(Cl)cc12
CCRF-CEM leukemia
  TGI: > 100 µM
IGROV1 ovarian
  TGI: 22.2 µM
MCF7 breast
  TGI: 14.9 µM
MDA-N
  TGI: 26.5 µM
SF-268 CNS
  TGI: 29.4 µM
SF-539 CNS
  TGI: 27.1 µM
SW-620 colon
  TGI: 23.5 µM
UACC-257 melanoma
  TGI: 30.6 µM
UO-31 renal
  TGI: 32.8 µM

## COc1ccc2c(c1)-c1nc(=S)n(CCN(C)C)c3ccc([N+](=O)[O-])c(c13)N2
DU-145 prostate
  TGI: 2.93 µM
IGROV1 ovarian
  TGI: 2.55 µM
MCF7 breast
  TGI: 3.43 µM
MDA-N
  TGI: 2.19 µM
SF-268 CNS
  TGI: 2.16 µM
SF-539 CNS
  TGI: 2.5 µM
SW-620 colon
  TGI: 3.07 µM
UACC-257 melanoma
  TGI: 5.92 µM
UO-31 renal
  TGI: 13.1 µM

## Brc1ccc2[nH]cc(-c3csc(-c4c[nH]c5ccc(Br)cc45)n3)c2c1
CCRF-CEM leukemia
  TGI: 3.93 µM
DU-145 prostate
  TGI: 6.89 µM
IGROV1 ovarian
  TGI: 4.6 µM
MCF7 breast
  TGI: 12.9 µM
MDA-N
  TGI: 5.95 µM
SF-268 CNS
  TGI: 6.12 µM
SF-539 CNS
  TGI: 2.9 µM
SW-620 colon
  TGI: 4.42 µM
UACC-257 melanoma
  TGI: 9.05 µM
UO-31 renal
  TGI: 7.27 µM

## CC(=O)Oc1ccc2c(c1)O/C(=C\c1ccc(O)cc1)C2=O
CCRF-CEM leukemia
  TGI: > 100 µM
DU-145 prostate
  TGI: > 100 µM
IGROV1 ovarian
  TGI: > 100 µM
MCF7 breast
  TGI: > 100 µM
MDA-N
  TGI: > 100 µM
SF-268 CNS
  TGI: > 100 µM
SF-539 CNS
  TGI: > 100 µM
SW-620 colon
  TGI: > 100 µM
UACC-257 melanoma
  TGI: > 100 µM
UO-31 renal
  TGI: > 100 µM

## COc1ccc(C(=O)/C=C/c2ccc(OCCCCCCCCCCOc3ccc(/C=C/C(=O)c4ccc(OC)c(OC)c4)cc3)cc2)c(OC)c1
CCRF-CEM leukemia
  TGI: > 100 µM
DU-145 prostate
  TGI: > 100 µM
IGROV1 ovarian
  TGI: > 100 µM
MCF7 breast
  TGI: > 100 µM
MDA-N
  TGI: > 100 µM
SF-268 CNS
  TGI: > 100 µM
SF-539 CNS
  TGI: > 100 µM
SW-620 colon
  TGI: > 100 µM
UACC-257 melanoma
  TGI: > 100 µM
UO-31 renal
  TGI: > 100 µM

## Nc1cc2nc(-c3ccccc3)cn2cn1
CCRF-CEM leukemia
  TGI: > 100 µM
DU-145 prostate
  TGI: > 100 µM
MCF7 breast
  TGI: > 100 µM
MDA-N
  TGI: > 100 µM
SF-268 CNS
  TGI: > 100 µM
SF-539 CNS
  TGI: > 100 µM
SW-620 colon
  TGI: > 100 µM
UO-31 renal
  TGI: > 100 µM

## Oc1ccc(C[C@@H]2CN[C@H](Cc3ccc(O)c(Br)c3)CN2)cc1
CCRF-CEM leukemia
  TGI: > 100 µM
DU-145 prostate
  TGI: > 100 µM
IGROV1 ovarian
  TGI: > 100 µM
MCF7 breast
  TGI: > 100 µM
SF-268 CNS
  TGI: > 100 µM
SF-539 CNS
  TGI: > 100 µM
SW-620 colon
  TGI: > 100 µM
UACC-257 melanoma
  TGI: > 100 µM
UO-31 renal
  TGI: > 100 µM

## O=C(O[C@@H](/C=C/c1ccccc1)P1(=O)N(Cc2ccccc2)[C@@H]2CCCC[C@H]2N1Cc1ccccc1)c1ccccc1
CCRF-CEM leukemia
  TGI: 80.9 µM
IGROV1 ovarian
  TGI: 15.5 µM
MCF7 breast
  TGI: > 100 µM
MDA-N
  TGI: > 100 µM
SF-268 CNS
  TGI: > 100 µM
SF-539 CNS
  TGI: > 100 µM
SW-620 colon
  TGI: > 100 µM
UACC-257 melanoma
  TGI: > 100 µM
UO-31 renal
  TGI: 27.4 µM

## N#Cc1ccnc(C(=O)N2CCCC2C(=O)O)c1 (stereo not given)
CCRF-CEM leukemia
  TGI: > 100 µM
DU-145 prostate
  TGI: > 100 µM
IGROV1 ovarian
  TGI: > 100 µM
MCF7 breast
  TGI: > 100 µM
MDA-N
  TGI: > 100 µM
SF-268 CNS
  TGI: > 100 µM
SF-539 CNS
  TGI: > 100 µM
SW-620 colon
  TGI: > 100 µM
UACC-257 melanoma
  TGI: > 100 µM
UO-31 renal
  TGI: > 100 µM

## CSc1ncnc2c1cnn2Cc1cn(COCC(O)CO)nn1 (stereo not given)
CCRF-CEM leukemia
  TGI: > 100 µM
DU-145 prostate
  TGI: > 100 µM
IGROV1 ovarian
  TGI: > 100 µM
MCF7 breast
  TGI: > 100 µM
MDA-N
  TGI: > 100 µM
SF-268 CNS
  TGI: 52.7 µM
SF-539 CNS
  TGI: > 100 µM
SW-620 colon
  TGI: > 100 µM
UACC-257 melanoma
  TGI: > 100 µM
UO-31 renal
  TGI: > 100 µM

## CN1C2CCC1C(CO)C(=O)C2 (stereo not given)
CCRF-CEM leukemia
  TGI: 27.4 µM
DU-145 prostate
  TGI: > 100 µM
IGROV1 ovarian
  TGI: > 100 µM
MCF7 breast
  TGI: 56.5 µM
SF-268 CNS
  TGI: > 100 µM
SF-539 CNS
  TGI: 52.9 µM
SW-620 colon
  TGI: 43.2 µM
UACC-257 melanoma
  TGI: > 100 µM

## O=C(CCl)Nc1ccc(C(=O)N/N=C/c2ccc(Cl)cc2)cc1
CCRF-CEM leukemia
  GI50: 2.23 µM
  TGI: 5.32 µM and 4.46 µM
DU-145 prostate
  GI50: 13.5 µM
  TGI: 8.44 µM and 27 µM
IGROV1 ovarian
  GI50: 1.85 µM
  TGI: 3.86 µM and 2.34 µM
MCF7 breast
  GI50: 10 µM
  TGI: 22.6 µM
MDA-N
  GI50: 11 µM
  TGI: 3.69 µM and 24.3 µM
SF-268 CNS
  GI50: 1.81 µM
  TGI: 3.88 µM and 6.85 µM
SF-539 CNS
  GI50: 1.75 µM
  TGI: 3.29 µM and 4.35 µM
SW-620 colon
  GI50: 3.35 µM
  TGI: 6.81 µM and 7.06 µM
UACC-257 melanoma
  GI50: 12.2 µM
  TGI: 3.73 µM and 25 µM
UO-31 renal
  TGI: 10.6 µM

## CCOC(=O)C(NC(=O)CC)(Nc1ccccc1F)C(F)(F)F (stereo not given)
DU-145 prostate
  TGI: > 100 µM
IGROV1 ovarian
  TGI: > 100 µM
MCF7 breast
  TGI: > 100 µM
MDA-N
  TGI: > 100 µM
SF-268 CNS
  TGI: > 100 µM
SF-539 CNS
  TGI: > 100 µM
SW-620 colon
  TGI: > 100 µM
UACC-257 melanoma
  TGI: > 100 µM
UO-31 renal
  TGI: > 100 µM
